# Laboratory results taken from patent US20070218023A1, “Uses of melatonin in skin” (priority 2006, published 2007).
# “Also recorded” adds a separate entry of the source.
# Columns and labels:
# HaCaT keratinocytes [1] = assay: Melatonin and metabolites in supernatants and cell lysates of UV-irradiated HaCaT keratinocytes (HPLC, LC-MS); assay type: in vitro ADME, human
# Description: (§1) Parallel control dishes were incubated with PBS without melatonin.
# (§2) Internal standards for HPLC were dissolved in absolute ethanol. […] AFMK was produced as described previously (48).
# (§3) Irradiation experiments were performed with a Biorad UV transluminator 2000 (Bio-RAD Laboratories, Hercules, Calif.), calibrated as described previously (37). Briefly, a scanning double monochromator spectroradiometer (Model OL 754, Optronic Laboratories, Orlando, Fla.) was used to scan emission of wavelengths from 250 to 800 nm at 1 nm increments. The spectroradiometer had been calibrated with an NIST traceable tungsten-halogen spectral irradiance standard (Model 75-10E, Optronic Laboratories, Orlando, Fla.) with a precision current source (Model 65, Optronic Laboratories, Orlando, Fla.). An additional calibration module (Model 752-150, Optronic Laboratories, Orlando, Fla.) measured both photometric gain and wavelength accuracy. Wavelength calibration and gain were established or verified before each experimental use. The UV source emission (shown in FIG. 1) consisted primarily of UVB light (wavelength 280-320 nm; 60%), with minor output in the UVA (320-400 nm) and UVC (120-280 nm) range (˜30% and ˜10%, respectively). Melatonin photoproducts generation was performed after irradiation at the UV doses of 25, 50, 75 or 100 mJ/cm^2, as indicated in the figures.
# (§4) Aliquots ([…]) of samples from the cell suspension and cell-free experiments were separated on an LC-MS QP8000a (Shimadzu, Japan) equipped with diode array and single quadrupole mass-spectrometric detectors. The separation system consisted of a Restec Allure C18 reverse-phase column (150×4.6 mm; 5 μm particle size; and 60 A pore size) with mobile phase consisting of 25% acetonitrile and 0.1% acetic acid. Elution was carried out isocratically at flow rate of 0.75 ml/min and temperature of 40° C. The eluent was routed to the mass-spectrometric electrospray interface (ESI) set in positive mode and using nitrogen as the nebulizing gas. Mass-spectrometry parameters were as follows: nebulizer gas flow rate, 4.5 l/min; electrospray voltage, 4.5 kV; and curved desolvation line (CDL) heater temperature, 250° C. The selected ion monitoring (SIM) mode was used to detect ions with m/z=249 (monohydroxymelatonin); m/z=265 (dihydroxymelatonin and AFMK); m/z=237 (AMK); and m/z=233 (melatonin). System control and data acquisition were performed with the LC-MS workstation Class-8000 software (Shimadzu, Japan).
# HaCaT keratinocytes [2] = assay: Kinetics of melatonin metabolism in untreated keratinocytes (intracellular levels); assay type: in vitro ADME, human; conditions: not preincubated with melatonin, no UV; for intracellular level in untreated keratinocytes after 24 hrs: cultivation for 24 hrs
# Description: as §1, §4
# HaCaT keratinocytes [3] = conditions: human
# Description: HaCaT keratinocytes were cultivated in Dulbecco's Modified Eagle Medium (DMEM) supplemented with glucose, L-glutamine, pyridoxine hydrochloride (Gibco, Invitrogen Life Technologies Carlsbad, Calif.), 10% fetal bovine serum (Mediatech Inc., Herndon, Va.) and 1% penicillin/streptomycin/amphotericin antibiotic solution (Sigma Chemical Co., St. Louis, Mo.). Cells were trypsinized from culture flasks and seeded in 10 cm petri dishes (Corning Inc., Corning, N.Y.) at a density of 10^6 cells/dish and incubated overnight. The next day, after confluence of 80-90% was reached, cells were washed once with PBS to remove remnants of media, and incubation with melatonin in PBS was performed for 30 min. Parallel control dishes were incubated with PBS without melatonin. After incubation the Petri dishes were irradiated from below with UVR. […]
# Cell extracts were briefly sonicated in 50 μl absolute ethanol in a Branson 5200 waterbath at ambient temperature (Branson Ultrasonics Corporation, Danbury, Conn.). […] Column eluate was monitored by Model 2487 UV detector (275 nm) and Model 991 photodiode array detectors and the data stored electronically for subsequent interpretation.
# HaCaT keratinocytes [4] = assay: Mitochondrial membrane potential (ΔΨ) using JC-1, confocal microscopy; assay type: cell-based, human; conditions: for mitochondrial membrane potential, melatonin alone: melatonin 10−4 M, without UV-exposure
# Description: Mitochondrial inner membrane potential (ΔΨ) in immortalized HaCaT keratinocytes was measured by using confocal microscopy with 5,5′,6,6′tetrachloro-1,1′,3,3′-tetraethylbenzimidazol-carbocyanine iodide (JC-1) (Molecular Probes, Carlsbad, Calif.) (66). JC-1 selectively enters mitochondria and aggregates when the membrane potential values exceed 80-100 mV, causing a shift in fluorescence from 530 nm (green) to 590 nm (red). For experiments, human HaCaT keratinocytes were seeded in Lab-Tek II 8-well chambered coverglass (Nalge Nunc, Inc., Naperville, Ill.) and grown until 90-100% of confluence. Culture media were removed and cells washed with PBS and then incubated for 30 or 120 min with melatonin at […]. Stock solution of melatonin was dissolved in DMEM and added to the culture media. After incubation, cells were washed twice with PBS and subjected to irradiation with UVB at the dose of 50 mJ/cm^2 or incubated with serum free medium containing 1 mM H2O2 for 1 h. After irradiation cells were incubated in DMEM containing 5% FBS and supplemented with JC-1 (2.5 μg/ml) for 30 min at 37° C. […] Images were acquired from three to six randomly chosen fields for each experimental condition showing nuclear cross-section. Green and red channels were merged and ratio of red to green channel was shown in blue.
# Bands of immunoblots were evaluated by measurement of density with Scion Image analysis software (NIH). Density values from two or three experiments were taken for calculation of mean values and standard deviation. For statistical analysis of mitochondrial membrane potential, images showing nuclear cross-section were acquired from three to six randomly chosen fields -or each experimental condition. Ration of red/green emission was calculated using ImageJ software (NIH, Bethesda, […].) and differences were analysed with Student's t-test and were considered significant when p-value was <0.05.
# [5] = UVR irradiation of melatonin solution in a cell-free system (HPLC, LC-MS); assay type: physicochemical; conditions: melatonin in PBS, UV-doses of 25, 50 and 100 mJ/cm^2
# Description: as §1, §2
# as §3, with “Melatonin photoproducts generation was performed after irradiation at the UV doses of 25, 50, 75 or 100 mJ/cm^2, as indicated in the figures.” left out
# Peak areas increased linearly with UV-doses (FIG. 2). […] Product identity was determined by comparison with known standards of melatonin metabolites. […]
# HaCaT keratinocytes [6] = assay: Morphology analysis of keratinocytes after UV irradiation; assay type: cell-based, human; conditions: melatonin 10^−3 M, 50 mJ/cm^2, 24 hours after irradiation
# Description: Cell media from overnight incubation was removed and replaced with fresh media containing melatonin at the concentration of 10^−3 M, the maximum effective concentration identified in previous studies (45, 46). […] Irradiation of the Petri dishes was performed with UVR from below, and after irradiation PBS was replaced by fresh culture media for 24 or 48 hrs. Paraely, cells were incubated with or without melatonin, but not subjected to irradiation to exclude effects of melatonin alone.
# Digital pictures from six to ten randomly chosen fields per Petri dish for each experimental condition were acquired at different time points after UV exposure (0, 24 and 48 hrs) with a NIKON Eclipse TE300 microscope (Melville, N.Y.). At 24 and 48 hrs after UV exposure, pictures of detached cells were first taken, then detached cells were removed and another set of pictures was acquired to assess the degree of confluency of cells which were still attached to the bottom of the culture dish. Pictures were recorded and analyzed with MetaVue software. Then, keratinocytes were harvested from Petri dishes by trypsinization, washed three times with ice-cold PBS and frozen in −80° C. until further processing.
# HaCaT keratinocytes [7] = conditions: [3H]-labeled melatonin tracer only; cited from earlier work
compound,measurement,setting,value
COc1ccc2[nH]cc(CCNC(C)=O)c2c1O [4-hydroxymelatonin],intracellular detection,HaCaT keratinocytes [1]; basal conditions and after UVR exposure,not detected intracellularly
COc1ccc2[nH]c(O)c(CCNC(C)=O)c2c1 [2-hydroxymelatonin],"intracellular level in untreated keratinocytes, initial (basal)",HaCaT keratinocytes [2],7.8 pmoles/1000 cells
same,intracellular level in untreated keratinocytes after 24 hrs,HaCaT keratinocytes [2],20.4 pmoles/1000 cells
COc1ccc2[nH]cc(CCNC(C)=O)c2c1 [melatonin],intracellular melatonin concentration,HaCaT keratinocytes [3],approximately 10−6 M
same,"uptake of melatonin into the cell, ratio of intra- to extracellular melatonin (% of applied levels)",HaCaT keratinocytes [3],0.125%
same,"UV-induced mitochondrial membrane potential reduction, red/green fluorescence ratio","HaCaT keratinocytes [4]; melatonin 10^−3 to 10^−6 M for 30 or 120 min, UVB 50 mJ/cm^2",attenuated by melatonin in a dose dependent manner; also recorded: prevented membrane potential reduction
same,H2O2-induced reduction of mitochondrial membrane potential,"HaCaT keratinocytes [4]; melatonin 10^−4 M, H2O2 1 mM, 60 minutes",significantly counteracted
same,"mitochondrial membrane potential, melatonin alone",HaCaT keratinocytes [4],no change of mitochondrial membrane potential
same,"mitochondrial membrane potential, melatonin alone",HaCaT keratinocytes [4]; listed as Melatonin,did not influence mitochondrial membrane potential
same,mitochondrial membrane potential after UVB (JC-1 images),"HaCaT keratinocytes [4]; preincubation with melatonin 10^−4 M, UVB 50 mJ/cm^2",preserved mitochondrial membrane potential
same,"intracellular level in untreated keratinocytes, initial (basal)",HaCaT keratinocytes [2],146.0 pmoles/1000 cells
same,intracellular level in untreated keratinocytes after 24 hrs,HaCaT keratinocytes [2],65.0 pmoles/1000 cells
same,"melatonin level in supernatants after UV exposure, % of nonirradiated melatonin solution",HaCaT keratinocytes [1]; human,99.7%
same,photoproducts generated by UV irradiation of melatonin solution,[5],generated four compounds
same,keratinocyte confluency and empty spaces after UV irradiation,HaCaT keratinocytes [6],confluency was higher compared to non-treated control and no empty spaces were seen
same,melatonin uptake in HaCaT keratinocytes (Nickel and Wohlrab),HaCaT keratinocytes [7],0.097%
"COc1ccc(NC=O)c(C(=O)CCNC(C)=O)c1 [AFMK, N^1-acetyl-N^2-formyl-5-methoxykynuramine]","intracellular level in untreated keratinocytes, initial (basal)",HaCaT keratinocytes [2],17.4 pmoles/1000 cells
same,intracellular level in untreated keratinocytes after 24 hrs,HaCaT keratinocytes [2],33.6 pmoles/1000 cells
same,time of highest level in supernatants post UV exposure,"HaCaT keratinocytes [1]; HaCaT preincubated with 10−3 M melatonin, UVR",40 min
same,"AFMK level in supernatants, irradiated vs nonirradiated",HaCaT keratinocytes [1]; cells not preincubated with melatonin,~13 fold
same,"AFMK level in supernatants, irradiated vs non-irradiated","HaCaT keratinocytes [1]; melatonin preincubation, 50 mJ/cm^2",~100 fold
same,"AFMK level in cell lysates, irradiated vs nonirradiated","HaCaT keratinocytes [1]; melatonin preincubation, UVR",approximately 3.5 fold
same,"AFMK level in native keratinocytes (lysates), UV-stimulated increase",HaCaT keratinocytes [1]; not preincubated with melatonin,1.9 fold
same,relative HPLC peak size of photoproduct,[5],largest peak
"COc1ccc(N)c(C(=O)CCNC(C)=O)c1 [AMK, N^1-acetyl-5-methoxykynuramine]",detection of AMK after UVR exposure,HaCaT keratinocytes [1],could not be detected
COc1cc2c(CCNC(C)=O)c[nH]c2cc1O [6-hydroxymelatonin],"intracellular level in untreated keratinocytes, initial (basal)",HaCaT keratinocytes [2],53.4 pmoles/1000 cells
same,intracellular level in untreated keratinocytes after 24 hrs,HaCaT keratinocytes [2],16.8 pmoles/1000 cells
